Activity calls are given as the source filed them. The rule behind the calls is not given here.
Key:
Yellow fever virus [1] = assay: Antiviral activity against 10^2 CCID50 Yellow fever virus Jimenez infected in syrian golden hamster assessed as serum AST level at 400 mg/kg/day, po administered daily for days started 4 day post viral challenge; format: functional
Yellow fever virus [2] = assay: Antiviral activity against 10^2 CCID50 Yellow fever virus Jimenez infected in syrian golden hamster assessed as serum ALT level at 400 mg/kg/day, po administered daily for days started 2 day post viral challenge; format: functional
Yellow fever virus [3] = assay: Antiviral activity against 10^2 CCID50 Yellow fever virus Jimenez infected in syrian golden hamster assessed as survival of animal at 400 mg/kg/day, po administered twice daily for 8 days started 2 day post viral infection; format: functional, organism-based
Yellow fever virus [4] = assay: Antiviral activity against 10^2 CCID50 Yellow fever virus Jimenez infected in syrian golden hamster assessed as serum ALT level at 400 mg/kg/day, po administered daily for days started 4 day post viral challenge; format: functional
Yellow fever virus [5] = assay: Antiviral activity against 10^2 CCID50 Yellow fever virus Jimenez infected in syrian golden hamster assessed as serum AST level at 400 mg/kg/day, po administered daily for days started 5 day post viral challenge; format: functional
Yellow fever virus [6] = assay: Antiviral activity against 10^2 CCID50 Yellow fever virus Jimenez infected in syrian golden hamster assessed as serum ALT level at 100 mg/kg/day, po administered twice daily for 8 days started 4 hrs prior to viral infection; format: functional
Yellow fever virus [7] = assay: Antiviral activity against Yellow fever virus 17D infected in African green monkey Vero cells assessed as time required for inhibition of viral replication at 6400 uM up to 12 hrs post-viral infection; format: functional, cell-based
Yellow fever virus [8] = assay: Antiviral activity against 10^2 CCID50 Yellow fever virus Jimenez infected in syrian golden hamster assessed as serum AST level at 10 mg/kg/day, po administered twice daily for 8 days started 4 hrs prior to viral infection; format: functional, organism-based
Yellow fever virus [9] = assay: Antiviral activity against 10^2 CCID50 Yellow fever virus Jimenez infected in syrian golden hamster assessed as mean day of death of mice at 400 mg/kg/day, po administered twice daily for 8 days started 4 day post infection; format: functional
Yellow fever virus [10] = assay: Antiviral activity against 10^2 CCID50 Yellow fever virus Jimenez infected in syrian golden hamster assessed as mean day of death […] at 100 mg/kg/day, po administered twice daily for 8 days started 4 hrs prior to viral infection relative to control; format: functional
Yellow fever virus [11] = assay: Antiviral activity against 10^2 CCID50 Yellow fever virus Jimenez infected in syrian golden hamster assessed as serum AST level in surviving animals at 400 mg/kg/day, po administered 4 days post viral infection; format: functional
Yellow fever virus [12] = assay: Antiviral activity against 10^2 CCID50 Yellow fever virus Jimenez infected in syrian golden hamster assessed as serum AST level at 400 mg/kg/day, po administered daily for days started 1 day post viral challenge; format: functional
Yellow fever virus [13] = assay: Antiviral activity against 10^2 CCID50 Yellow fever virus Jimenez infected in syrian golden hamster assessed as serum AST level in non surviving animals at 400 mg/kg/day, po administered 4 days post viral infection; format: functional
Yellow fever virus [14] = assay: Antiviral activity against 10^2 CCID50 Yellow fever virus Jimenez infected in syrian golden hamster assessed as serum survival of animal at 200 mg/kg/day, po administered twice daily for 8 days started 4 hrs prior to viral infection; format: functional, organism-based

**Q.** Which Activity (Yellow fever virus [1]) does the source give for `NC(=O)c1nc(F)cnc1O` [FAVIPIRAVIR] here?
**A.** 131 IU/L

**Q.** What about the Activity (Yellow fever virus [2]) of the same compound?
**A.** 84 IU/L

**Q.** What about the Activity (Yellow fever virus [3]) of the same compound?
**A.** Active

**Q.** What about the Activity (Yellow fever virus [4]) of the same compound?
**A.** 115 IU/L

**Q.** What about the Activity (Yellow fever virus [5]) of the same compound?
**A.** 212 IU/L

**Q.** What about the Activity (Yellow fever virus [6]) of the same compound?
**A.** 157 IU/L

**Q.** What about the Activity (Yellow fever virus [7]) of the same compound?
**A.** Active

**Q.** And the Activity (Yellow fever virus [8])?
**A.** inactive

**Q.** What about the Time (Yellow fever virus [9]) of the same compound?
**A.** 6.5 days

**Q.** What about the Time (Yellow fever virus [10]) of the same compound?
**A.** 7.1 days

**Q.** What about the Activity (Yellow fever virus [11]) of the same compound?
**A.** 132 IU/L

**Q.** And the Activity (Yellow fever virus [12])?
**A.** 52 IU/L

**Q.** And the Activity (Yellow fever virus [13])?
**A.** 189 IU/L

**Q.** And the Activity (Yellow fever virus [14])?
**A.** Active

From ChEMBL document CHEMBL1629577, “Activity of T-705 in a hamster model of yellow fever virus infection in comparison with that of a chemically related compound, T-1106” (Antimicrob Agents Chemother, 2009)
